# Laboratory results as given in patent US20230130766A1 (SALK INSTITUTE FOR BIOLOGICAL STUDIES, priority 2020, published 2023).
# How the values were obtained:
# Assay type in all cases: in vivo, nude mice
# [1] = test system: NCI-H358 cells; test: H358 xenografts treated with ULK inhibitor alone; details: 30 mg/kg twice daily
# Procedure: NCI-H358 cells (5M cells) were injected bilaterally into the flanks of twenty nude mice to create tumor xenografts in order to assess the efficacy of Compound 14 in treating non-small cell lung cancer tumors. After 32 days of letting tumor cells proliferate (at which point tumors had reach ˜200 mm^3 in volume), one cohort of ten mice was administered 30 mg/kg twice daily doses of Compound 14, and the remaining mice administered vehicle alone. Treatment and monitoring was continued until day 72 post inoculation of tumor cells.
# [2] = test system: NCI-H460 cells; test: NCI-H460 xenografts treated with ULK inhibitor alone; details: 30 mg/kg twice daily
# Procedure: NCI-H460 cells (2.5M cells) were injected bilaterally into the flanks of twenty-four nude mice to create tumor xenografts in order to assess the efficacy of Compound 14 in treating non-small cell lung cancer tumors. After 14 days of letting tumor cells proliferate (at which point tumors had reach ˜200 mm^3 in volume), one cohort of twelve mice was administered 30 mg/kg twice daily doses of Compound 14, and the remaining mice administered vehicle alone. Treatment and monitoring were continued until day 23 post inoculation of tumor cells (9 days of treatment).
# [3] = test system: A549 cells; test: A549 xenografts, ULK inhibitor alone and in combination with carboplatin
# Procedure: (§1) A549 cells (5M cells) were injected bilaterally into the flanks of thirty-six nude mice to create tumor xenografts in order to assess the efficacy of Compound 14 in treating non-small cell lung cancer tumors both alone and in combination with carboplatin, the current standard of care therapy for non-small cell lung cancer. After 11 days of letting tumor cells proliferate (at which point tumors were ˜50 mm^3 in volume), administration of carboplatin, Compound 14, or combinations began. One cohort of six mice received 20 mg/kg twice daily doses of Compound 14 alone, one cohort of six mice received 30 mg/kg twice daily doses of Compound 14 alone, one cohort of six mice received 25 mg/kg doses of carboplatin every three days, one cohort of six mice received 20 mg/kg twice daily doses of Compound 14 in conjunction with 25 mg/kg doses of carboplatin every three days, one cohort of six mice received 30 mg/kg twice daily doses of Compound 14 in conjunction with 25 mg/kg doses of carboplatin every three days, and the remaining six mice were treated with vehicle. Treatment and monitoring was continued until day 53 post inoculation of tumor cells (42 days of treatment).
# [4] = test system: phosphorylated ATG13 (P-ATG); test: Western blot analysis of A549 xenograft tumors; details: A549 xenograft tumors at end of study
# Procedure: as §1
# At the end of the study, Western blot analysis of the tumors from vehicle and Compound 14 monotherapy cohorts was analyzed.
# [5] = test system: A549 cells; test: A549 xenograft large tumors, ULK inhibitor alone versus carboplatin; details: A549 large tumors; each Compound 14 cohort: 20 mg/kg twice daily, 30 mg/kg twice daily, 40 mg/kg once daily; 32 days
# Procedure: A549 cells (5M cells) were injected bilaterally into the flanks of forty-six nude mice to create tumor xenografts in order to assess the efficacy of Compound 14 in treating larger non-small cell lung cancer tumors compared to carboplatin, the current standard of care therapy for non-small cell lung cancer. After 40 days of letting tumor cells proliferate (at which point tumors were over 200 mm^3 in volume), administration of carboplatin or Compound 14 was initiated. One cohort of twelve mice received 20 mg/kg twice daily doses of Compound 14, one cohort of ten mice received 30 mg/kg twice daily doses of Compound 14, one cohort of seven mice received 25 mg/kg doses of carboplatin every three days, one cohort of seven mice received 40 mg/kg once daily doses of Compound 14, and the remaining ten mice were treated with vehicle. Treatment and monitoring was continued until day 72 post inoculation of tumor cells (32 days of treatment).
# [6] = test system: MIA PaCa-2 cells; test: MIA PaCa-2 xenografts, ULK inhibitor alone versus gemcitabine; details: day 42, Compound 14 20 mg/kg twice daily, gemcitabine dose not given
# Procedure: (§2) MIA PaCa-2 cells were injected bilaterally into the flanks of nude mice to create tumor xenografts in order to assess the efficacy of Compound 14 in treating pancreatic cancer tumors compared to gemcitabine, a current standard of care therapy for pancreatic cancer. After 3 days of letting tumor cells proliferate (at which point tumors were ˜100 mm^3 in volume), administration of gemcitabine or Compound 14 was initiated. One cohort received 20 mg/kg twice daily doses of Compound 14, one cohort received gemcitabine, and the remaining cohort was treated with vehicle. Treatment and monitoring were continued until day 42 post inoculation of tumor cells (30 days of treatment).
# [7] = test system: ULK1, phosphorylated ATG13; test: Western blot analysis of MIA PaCa-2 xenograft tumors; details: MIA PaCa-2 xenograft tumors at end of experiment, 20 mg/kg twice daily
# Procedure: as §2
# [8] = test system: MIA PaCa-2 cells; test: MIA PaCa-2 xenografts, ULK inhibitor alone and in combination with trametinib; details: day 25
# Procedure: MIA PaCa-2 cells were injected bilaterally into the flanks nude mice to create tumor xenografts in order to assess the efficacy of Compound 14 in treating pancreatic cancer tumors alone and in combination with trametinib, an MEK inhibitor and current standard of care therapy for the treatment of pancreatic cancer. After letting tumor cells proliferate to the point where tumors had reach ˜300 mm^3 in volume, one cohort of mice was administered 20 mg/kg daily doses of Compound 14, one cohort of mice was administered 30 mg/kg daily doses of Compound 14, one cohort of mice was administered 1 mg/kg daily doses of trametinib, one cohort of mice was administered 1 mg/kg daily doses of trametinib in combination with 20 mg/kg daily doses of Compound 14, one cohort of mice was administered 1 mg/kg daily doses of trametinib in combination with 30 mg/kg daily doses of Compound 14, and the remaining cohort of mice was administered vehicle alone. Treatment and monitoring were continued for 25 days.
smiles,measurement,setting,value
CNC(=O)c1ccccc1Nc1nc(Nc2cc(OC)c(OC)c(OC)c2)ncc1Br [Compound 14],% growth of tumor cells relative to the start of treatment,[1],clear reduction in average tumor size
same,average tumor volume,[1]; day 32 to day 72 post inoculation,"no growth during the monitoring period, and even a decrease in tumor size"
same,average tumor mass at the end of the study,[1]; day 35 post treatment,substantially smaller overall tumor burden compared to control
same,% growth of tumor relative to the start of treatment,[2],clear reduction in tumor growth
same,average tumor volume,[2]; 9 days of treatment,substantially reduced growth during the monitoring period compared to the control
same,tumor growth,[2]; after 3 days of treatment,tumor growth had virtually stopped
same,less tumor mass than vehicle treated mice,[2]; day 9 post treatment,~50%
same,final tumor average volume,"[3]; 20 mg/kg twice daily alone, day 53",~150 mm^3
same,average tumor mass at the end of the study,"[3]; 30 mg/kg twice daily alone, 42 days of treatment",smallest tumors
same,tumor volume at the end of the study,"[3]; 30 mg/kg twice daily alone, day 53",~50 mm^3
same,average tumor mass at the end of the study,"[3]; both combinations: Compound 14 20 or 30 mg/kg twice daily with carboplatin 25 mg/kg every three days, 42 days",smallest tumors
same,tumor volume at the end of the study,"[3]; both combinations: Compound 14 20 or 30 mg/kg twice daily with carboplatin 25 mg/kg every three days, day 53",~50 mm^3
same,tumor growth compared to the control,"[3]; monotherapy: carboplatin 25 mg/kg every three days, Compound 14 20 mg/kg twice daily",markedly reduced growth compared to the control
same,phosphorylated ATG13 in tumors (Western blot),[4]; 20 mg/kg twice daily monotherapy,some residual phosphorylated ATG13
same,phosphorylated ATG13 in tumors (Western blot),[4]; 30 mg/kg twice daily monotherapy,almost total elimination of phosphorylated ATG13
same,tumor growth compared with the start of treatment,[5],"little to no growth, or even a decrease in tumor volume"
same,final tumor volume,[6],~800 mm^3
same,ULK1 levels in tumor (Western blot),[7],reduced ULK1 levels compared to vehicle treated
same,levels of phosphorylated ATG13 in tumor (Western blot),[7],reduced levels of phosphorylated ATG13
same,total levels of ATG13 in tumor (Western blot),[7]; versus vehicle,comparable
same,final tumor size (average),[8]; 20 mg/kg daily alone,~1000 mm^3
same,average tumor mass at the end of the study,[8]; both combinations: trametinib 1 mg/kg daily with Compound 14 20 or 30 mg/kg daily,substantially less tumor mass compared to control and each mono-therapy
